Measurements: patent publication US20250257061A1, “COMPOSITIONS AND METHODS FOR TREATING CANCER AND REDUCING WNT MEDIATED EFFECTS” (StemSynergy Therapeutics, Inc., priority 2024, published 2025)
Where two headings read alike, the source gives them in different places. Each block holds one compound with its values, some of them ahead of it.

How the values were obtained:
[1] = test system: Wnt-dependent HCT116 cell line; test: Viability assay using Wnt-dependent HCT116 cell line (Cell Titer Glo); format: cell-based
Description: All compounds were tested using the human cell line HEK STF293. This cell line carries a Wnt reporter (TCF/LEF1 promoter), which drives expression of the firefly luciferase protein. The level of Wnt activity is directly correlated with the level of luciferase activity (determined using a simple assay). Compounds that inhibit Wnt signaling by reducing luciferase activity in these two cell lines are further tested biochemically. […] Compounds were further tested in a Viability assay using Wnt-dependent HCT116 cell line. HEK293 cells were seeded in a 6-well plate at approximately 8.0×10^5 cells (2 mL per well). On the first day, Wnt3a-conditioned media (1:1) and compounds (1:100) were added to the plated cells. The final concentrations of compounds were 1 μM, 500 nM, and 100 nM. Vehicle (DMSO) and a Wnt3a-conditioned media plus Vehicle samples were also prepared as controls. Lysates were collected (with non-denaturing lysis buffer) after 24 hours incubation, and protein concentrations determined by Bradford Assay. Immunoblotting with an anti-beta-catenin antibody (equivalent amounts of protein/lane for each condition) were subsequently performed to determine beta-catenin levels. HCT116 cells were seeded at 2,500 cells/well in a 96-well dish (Volume: 100 μL/well). On the second day, the 10 mM stock solution of each test compound was thawed at room temperature. Dilutions of the test compound were prepared in DMSO in a V-bottom 96-well plate. The stock compound solution, DMSO-diluted compound solutions, and DMSO were further diluted 500-fold in cell culture media, and 100 μL of the compound- or DMSO-containing cell culture media was added to each well of the cells. […] The final DMSO concentration was 0.1% in all wells. On the fifth day, 150 μL of media was removed from each well. 50 μL/well Cell Titer Glo reagent (Promega) was added to each well. The plate was shaken at 130 rpm for 15 minutes at room temperature, and the cell viability was determined using a luminescence plate reader. All compounds were tested using the human cell line HEK STF293. This cell line carries a Wnt reporter (TCF/LEF1 promoter), which drives expression of the firefly luciferase protein. The level of Wnt activity is directly correlated with the level of luciferase activity (determined using a simple assay). Compounds that inhibit Wnt signaling by reducing luciferase activity in these two cell lines are further tested biochemically. […] Compounds were further tested in a Viability assay using Wnt-dependent HCT116 cell line. HEK293 cells were seeded in a 6-well plate at approximately 8.0×10^5 cells (2 mL per well). On the first day, Wnt3a-conditioned media (1:1) and compounds (1:100) were added to the plated cells. The final concentrations of compounds were 1 μM, 500 nM, and 100 nM. Vehicle (DMSO) and a Wnt3a-conditioned media plus Vehicle samples were also prepared as controls. Lysates were collected (with non-denaturing lysis buffer) after 24 hours incubation, and protein concentrations determined by Bradford Assay. Immunoblotting with an anti-beta-catenin antibody (equivalent amounts of protein/lane for each condition) were subsequently performed to determine beta-catenin levels. HCT116 cells were seeded at 2,500 cells/well in a 96-well dish (Volume: 100 μL/well). On the second day, the 10 mM stock solution of each test compound was thawed at room temperature. Dilutions of the test compound were prepared in DMSO in a V-bottom 96-well plate. The stock compound solution, DMSO-diluted compound solutions, and DMSO were further diluted 500-fold in cell culture media, and 100 μL of the compound- or DMSO-containing cell culture media was added to each well of the cells. […] The final DMSO concentration was 0.1% in all wells. On the fifth day, 150 μL of media was removed from each well. 50 μL/well Cell Titer Glo reagent (Promega) was added to each well. The plate was shaken at 130 rpm for 15 minutes at room temperature, and the cell viability was determined using a luminescence plate reader. […]

[2] = test system: Wnt reporter (TCF/LEF1 promoter); test: HEK STF293 Wnt reporter (TOPFlash) luciferase assay, Steady Glo normalised to Cell Titer; format: cell-based, human
Description: All compounds were tested using the human cell line HEK STF293. This cell line carries a Wnt reporter (TCF/LEF1 promoter), which drives expression of the firefly luciferase protein. The level of Wnt activity is directly correlated with the level of luciferase activity (determined using a simple assay). Compounds that inhibit Wnt signaling by reducing luciferase activity in these two cell lines are further tested biochemically. […] Compounds were further tested in a Viability assay using Wnt-dependent HCT116 cell line. Compounds were prepared as 10 mM stocks for each compound in DMSO. Dilutions were prepared in a 96-well plate in DMSO. The stock dilutions are as follows: 10 mM, 1 mM, 100 μM, 10 μM, 100 nM, and 10 nM. Plates were sealed and stored at −20° C. […] On the first day, Wnt3a-conditioned media (1:1) were added along with diluted compounds (1:100). […] The final concentrations should therefore be 100 μM, 10 μM, 1 μM, 100 nM, 10 nM, and 1 nM. On the second day, the media was removed and 75 μL of Passive Lysis Buffer (Promega) is added to each well. The plate was shaken at 130 rpm for 15 minutes. For the Steady Glo assay, 45 μL of the lysis was removed and added to a white 96-well plate containing 45 μL/well of Steady Glo solution (Promega). For the Cell Titer assay, 25 μL of the lysis was transferred to a white 96-well plate containing 25 μL/well of Cell Titer solution (Promega). Both Steady Glo and Cell Titer assays were read with a luminescence plate reader. When determining EC50, the Steady Glo values were divided by the Cell Titer values to normalize for cell number. All compounds were tested using the human cell line HEK STF293. This cell line carries a Wnt reporter (TCF/LEF1 promoter), which drives expression of the firefly luciferase protein. The level of Wnt activity is directly correlated with the level of luciferase activity (determined using a simple assay). Compounds that inhibit Wnt signaling by reducing luciferase activity in these two cell lines are further tested biochemically. […] Compounds were further tested in a Viability assay using Wnt-dependent HCT116 cell line. Compounds were prepared as 10 mM stocks for each compound in DMSO. Dilutions were prepared in a 96-well plate in DMSO. The stock dilutions are as follows: 10 mM, 1 mM, 100 μM, 10 μM, 100 nM, and 10 nM. Plates were sealed and stored at −20° C. […] On the first day, Wnt3a-conditioned media (1:1) were added along with diluted compounds (1:100). […] The final concentrations should therefore be 100 μM, 10 μM, 1 μM, 100 nM, 10 nM, and 1 nM. On the second day, the media was removed and 75 μL of Passive Lysis Buffer (Promega) is added to each well. The plate was shaken at 130 rpm for 15 minutes. For the Steady Glo assay, 45 μL of the lysis was removed and added to a white 96-well plate containing 45 μL/well of Steady Glo solution (Promega). For the Cell Titer assay, 25 μL of the lysis was transferred to a white 96-well plate containing 25 μL/well of Cell Titer solution (Promega). Both Steady Glo and Cell Titer assays were read with a luminescence plate reader. When determining EC50, the Steady Glo values were divided by the Cell Titer values to normalize for cell number. All compounds were tested using the human cell line HEK STF293. This cell line carries a Wnt reporter (TCF/LEF1 promoter), which drives expression of the firefly luciferase protein. The level of Wnt activity is directly correlated with the level of luciferase activity (determined using a simple assay). Compounds that inhibit Wnt signaling by reducing luciferase activity in these two cell lines are further tested biochemically. […] Compounds were further tested in a Viability assay using Wnt-dependent HCT116 cell line. Compounds were prepared as 10 mM stocks for each compound in DMSO. Dilutions were prepared in a 96-well plate in DMSO. The stock dilutions are as follows: 10 mM, 1 mM, 100 μM, 10 μM, 100 nM, and 10 nM. Plates were sealed and stored at −20° C. […]

[3] = Examples for Formulae (IV), (V), (VI), and (VII), HCT116 cells, read-out: Viability IC50 category
[4] = Examples for Formulae (IV), (V), (VI), and (VII), HEK STF293 cells, Wnt3a-conditioned media, read-out: TOPFlash IC50 category
[5] = Homo sapiens, HCT-116, Examples for Formulae (I), (II), and (III), HCT116 cells, read-out: Viability IC50 category
[6] = Homo sapiens, STF/293, Examples for Formulae (I), (II), and (III), HEK STF293 cells, Wnt3a-conditioned media, read-out: TOPFlash IC50 category
[7] = Homo sapiens, HCT-116, read-out: Viability IC50 category
[8] = Homo sapiens, STF/293, read-out: TOPFlash IC50 category
[9] = Homo sapiens, HCT-116, Examples for Formulae (IV), (V), (VI), and (VII), HCT116 cells, read-out: Viability IC50 category
[10] = Homo sapiens, STF/293, Examples for Formulae (IV), (V), (VI), and (VII), HEK STF293 cells, Wnt3a-conditioned media, read-out: TOPFlash IC50 category

IC50 [1, 5]: 1000 to 10000 nM
Structure (SMILES): COc1ccc(Cn2cc(C(=O)Nc3nc(-c4ccccn4)cs3)cn2)cc1 [Example 3]
IC50 [2, 6]: 1000 to 10000 nM

IC50 [1, 5]: 500 to 1000 nM
Structure (SMILES): Cn1cc(C(=O)Nc2nc(-c3ccccn3)cs2)c(-c2ccccc2Cl)n1 [Example 2]
IC50 [2, 6]: 1000 to 10000 nM

IC50 [1, 5]: 1000 to 10000 nM
Structure (SMILES): Cc1nn(-c2ccc(F)cc2)c(C)c1C(=O)Nc1nc(-c2ccccn2)cs1 [Example 5]
IC50 [2, 6]: 1000 to 10000 nM

IC50 [1, 5]: 1000 to 10000 nM
Structure (SMILES): Cc1nn(Cc2ccccc2)c(C)c1C(=O)Nc1nc(-c2ccccn2)cs1 [Example 4]
IC50 [2, 6]: 500 to 1000 nM

IC50 [1, 9]: 200 to 500 nM
Structure (SMILES): Cc1nc(-c2ccccc2F)c(C(=O)Nc2nc(-c3ccccn3)cs2)o1 [Example 10]
IC50 [2, 10]: < 200 nM

Continued, compound first:

Structure (SMILES): CN(c1nc(C(F)(F)F)c(C(=O)Nc2nc(-c3ccccn3)cs2)o1)S(=O)(=O)c1ccccc1Cl [Example 56]
IC50 [1, 3]: 500 to 1000 nM
IC50 [2, 4]: 500 to 1000 nM

Structure (SMILES): CC(C)(C)c1nc(-c2ccc(F)cc2)c(C(=O)Nc2nc(-c3ccccn3)cs2)o1 [Example 23]
IC50 [1, 7]: 200 to 500 nM
IC50 [2, 8]: 200 to 500 nM

Structure (SMILES): CN(C(=O)c1ccc(C(F)(F)F)cc1)c1ncc(C(=O)Nc2nc(-c3ccccn3)cs2)o1 [Example 35]
IC50 [1, 3]: 1000 to 10000 nM
IC50 [2, 4]: 500 to 1000 nM

Structure (SMILES): Cc1onc(-c2ccccc2Cl)c1C(=O)Nc1nc(-c2ccccn2)cs1 [Example 28]
IC50 [1, 7]: 200 to 500 nM
IC50 [2, 8]: 200 to 500 nM

Structure (SMILES): Cc1onc(-c2ccc(F)cc2)c1C(=O)Nc1nc(-c2ccccn2)cs1 [Example 4]
IC50 [1, 9]: 200 to 500 nM
IC50 [2, 10]: < 200 nM

Structure (SMILES): CN(c1ncc(C(=O)O)o1)S(=O)(=O)c1ccc(C(F)(F)F)cc1 [Example 43]
IC50 [1, 3]: < 200 nM
IC50 [2, 4]: < 200 nM

Structure (SMILES): CN(c1ncc(C(=O)Nc2nc(-c3ccccn3)cs2)o1)S(=O)(=O)c1ccc(Cl)cc1 [Example 38]
IC50 [1, 3]: 500 to 1000 nM
IC50 [2, 4]: 200 to 500 nM

Structure (SMILES): CN(C(=O)c1ccccc1Cl)c1nc(C(F)(F)F)c(C(=O)Nc2nc(-c3ccccn3)cs2)o1 [Example 78]
IC50 [1, 9]: 1000 to 10000 nM
IC50 [2, 10]: 500 to 1000 nM

Structure (SMILES): COc1ncccc1-c1noc(C)c1C(=O)Nc1nc(-c2ccccn2)cs1 [Example 22]
IC50 [1, 7]: 200 to 500 nM
IC50 [2, 8]: 200 to 500 nM
